Common to all, as to test: Kinase panel (mobility shift)
Type in all cases: biochemical

In assay [1] the target is EPH-A4 (Homo sapiens, UniProt P54764). How it is done: (§1) The disclosed compounds were tested for activity against a panel of 299 kinases. The target enzyme was incubated with fluorescently labeled substrate and test compounds in a standardized reaction mixture in 384 well plates. Upon termination of the reaction, samples were introduced onto microfluidic chips. The samples migrated through channels in the chips and product and substrate were separated based on the difference in their charge (electrophoretic mobility shift). Enzyme activity was measured by direct comparison of the fluorescence in the product and substrate peaks. […] In the tables A=95% or greater at 5 um, B=90%-94% at 5 um, and C=80%-89% at 5 um. [note to draft: we included category D for 50-79 and category E is less than 50%. Feel free to remove if not needed)
Chain of EPH-A4 (P54764 20-986, species assumed): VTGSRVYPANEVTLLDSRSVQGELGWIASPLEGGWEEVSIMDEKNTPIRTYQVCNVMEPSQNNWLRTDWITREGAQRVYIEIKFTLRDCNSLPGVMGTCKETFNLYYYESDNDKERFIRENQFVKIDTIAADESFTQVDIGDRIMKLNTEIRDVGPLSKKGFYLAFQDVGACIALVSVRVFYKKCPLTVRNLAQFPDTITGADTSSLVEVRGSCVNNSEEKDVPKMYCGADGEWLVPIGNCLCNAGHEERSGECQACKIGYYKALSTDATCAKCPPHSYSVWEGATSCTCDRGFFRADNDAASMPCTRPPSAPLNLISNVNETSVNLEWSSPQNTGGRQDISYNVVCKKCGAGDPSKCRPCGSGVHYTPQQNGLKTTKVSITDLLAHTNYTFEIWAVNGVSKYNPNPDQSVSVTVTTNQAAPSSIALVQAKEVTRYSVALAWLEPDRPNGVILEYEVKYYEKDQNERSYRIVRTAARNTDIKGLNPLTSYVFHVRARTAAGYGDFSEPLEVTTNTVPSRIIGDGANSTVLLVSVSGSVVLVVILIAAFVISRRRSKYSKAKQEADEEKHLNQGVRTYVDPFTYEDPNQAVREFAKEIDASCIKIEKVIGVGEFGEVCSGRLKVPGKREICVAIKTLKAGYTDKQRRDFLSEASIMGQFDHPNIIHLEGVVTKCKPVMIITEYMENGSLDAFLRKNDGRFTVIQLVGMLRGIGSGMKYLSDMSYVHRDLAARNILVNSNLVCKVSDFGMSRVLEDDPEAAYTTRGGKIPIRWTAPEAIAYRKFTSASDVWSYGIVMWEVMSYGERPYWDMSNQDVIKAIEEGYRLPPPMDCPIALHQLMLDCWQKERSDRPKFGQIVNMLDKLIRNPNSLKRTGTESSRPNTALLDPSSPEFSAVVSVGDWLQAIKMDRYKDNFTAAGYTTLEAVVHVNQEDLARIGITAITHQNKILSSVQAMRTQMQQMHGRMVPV

In assay [2] the target is T1, HIPK4 (Homo sapiens, UniProt Q8NE63).
T1 sequence (Q8NE63 1-616): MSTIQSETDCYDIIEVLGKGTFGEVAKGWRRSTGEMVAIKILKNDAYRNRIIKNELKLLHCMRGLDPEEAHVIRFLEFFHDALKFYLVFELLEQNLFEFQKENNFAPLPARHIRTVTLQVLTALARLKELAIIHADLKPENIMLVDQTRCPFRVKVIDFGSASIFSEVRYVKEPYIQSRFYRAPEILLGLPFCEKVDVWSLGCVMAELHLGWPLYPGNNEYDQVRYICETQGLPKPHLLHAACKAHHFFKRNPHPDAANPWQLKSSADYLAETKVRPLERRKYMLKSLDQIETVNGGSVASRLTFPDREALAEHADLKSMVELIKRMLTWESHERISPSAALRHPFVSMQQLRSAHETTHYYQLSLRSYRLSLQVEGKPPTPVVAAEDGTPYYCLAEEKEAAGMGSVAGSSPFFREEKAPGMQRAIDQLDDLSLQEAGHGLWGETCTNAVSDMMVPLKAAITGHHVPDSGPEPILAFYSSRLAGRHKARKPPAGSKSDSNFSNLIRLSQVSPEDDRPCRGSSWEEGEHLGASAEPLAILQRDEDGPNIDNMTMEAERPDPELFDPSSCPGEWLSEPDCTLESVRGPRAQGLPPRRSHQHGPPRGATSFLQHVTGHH
The procedure:
as §1

The target in assay [3] is LOK (Homo sapiens, UniProt O94804). To be noted: at 5 um. How it is done: as §1
Chain of LOK (O94804 whole entry, species assumed): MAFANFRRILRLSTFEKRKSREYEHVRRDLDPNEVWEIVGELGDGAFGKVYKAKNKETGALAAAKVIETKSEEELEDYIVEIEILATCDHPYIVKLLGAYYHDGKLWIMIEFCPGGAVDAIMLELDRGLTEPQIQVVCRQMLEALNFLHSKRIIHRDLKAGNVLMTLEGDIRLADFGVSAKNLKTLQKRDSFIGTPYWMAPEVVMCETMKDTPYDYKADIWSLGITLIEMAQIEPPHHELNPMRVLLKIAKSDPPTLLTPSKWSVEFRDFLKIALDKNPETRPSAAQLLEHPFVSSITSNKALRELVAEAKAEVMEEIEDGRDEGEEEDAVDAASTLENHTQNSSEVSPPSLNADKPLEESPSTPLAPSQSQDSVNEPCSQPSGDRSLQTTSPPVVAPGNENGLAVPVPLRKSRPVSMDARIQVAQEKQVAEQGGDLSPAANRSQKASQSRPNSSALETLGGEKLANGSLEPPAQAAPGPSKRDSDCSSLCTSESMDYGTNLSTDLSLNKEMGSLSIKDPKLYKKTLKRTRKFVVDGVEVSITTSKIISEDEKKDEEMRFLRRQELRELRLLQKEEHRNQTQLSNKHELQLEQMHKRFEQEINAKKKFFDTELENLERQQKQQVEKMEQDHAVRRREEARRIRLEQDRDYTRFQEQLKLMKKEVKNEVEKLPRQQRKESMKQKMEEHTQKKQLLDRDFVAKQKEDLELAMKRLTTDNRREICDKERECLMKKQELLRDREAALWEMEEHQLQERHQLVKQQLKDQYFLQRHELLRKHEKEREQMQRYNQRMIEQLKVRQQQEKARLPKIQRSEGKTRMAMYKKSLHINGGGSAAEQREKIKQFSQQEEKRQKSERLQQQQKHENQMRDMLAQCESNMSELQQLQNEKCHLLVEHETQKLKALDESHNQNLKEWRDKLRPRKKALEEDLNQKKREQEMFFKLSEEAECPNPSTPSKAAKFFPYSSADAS
Assay [4] addresses T2, TAOK3 (Homo sapiens, UniProt Q9H2K8).
T2 sequence (Q9H2K8 1-898): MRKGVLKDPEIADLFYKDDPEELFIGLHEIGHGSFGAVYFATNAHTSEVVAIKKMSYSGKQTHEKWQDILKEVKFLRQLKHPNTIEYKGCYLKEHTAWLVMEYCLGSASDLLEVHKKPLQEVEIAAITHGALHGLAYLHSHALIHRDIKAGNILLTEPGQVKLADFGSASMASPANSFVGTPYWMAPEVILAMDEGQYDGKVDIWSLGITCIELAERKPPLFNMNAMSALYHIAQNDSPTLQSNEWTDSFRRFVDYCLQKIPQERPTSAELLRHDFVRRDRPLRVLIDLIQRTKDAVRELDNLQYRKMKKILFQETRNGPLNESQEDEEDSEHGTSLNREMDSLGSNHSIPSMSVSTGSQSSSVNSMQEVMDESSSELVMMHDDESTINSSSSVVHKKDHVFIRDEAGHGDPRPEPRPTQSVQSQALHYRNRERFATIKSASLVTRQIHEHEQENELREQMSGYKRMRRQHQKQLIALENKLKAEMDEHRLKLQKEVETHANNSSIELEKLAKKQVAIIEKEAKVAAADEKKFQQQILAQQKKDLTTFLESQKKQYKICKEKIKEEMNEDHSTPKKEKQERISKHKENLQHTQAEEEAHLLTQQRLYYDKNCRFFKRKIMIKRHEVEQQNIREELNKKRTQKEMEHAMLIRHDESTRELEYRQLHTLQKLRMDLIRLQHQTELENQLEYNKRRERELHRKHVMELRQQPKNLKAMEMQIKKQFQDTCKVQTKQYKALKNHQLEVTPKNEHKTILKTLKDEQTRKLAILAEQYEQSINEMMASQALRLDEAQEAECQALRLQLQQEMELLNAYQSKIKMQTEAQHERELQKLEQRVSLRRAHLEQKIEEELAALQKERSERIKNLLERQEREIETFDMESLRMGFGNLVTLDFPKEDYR
How it is done:
as §1

SMILES strings stand for the structures.

Usually inhibition stands for the drop in the measured response relative to a control, in per cent.

As for `CNC(=O)c1cc(Oc2ccc(NC(=O)c3nc(COC)oc3-c3ccc(F)cc3)cc2F)ccn1` [Compound 30], the inhibition at 5 µM in assay [1] is 90 to 94%; in assay [2], no less than 95%; in assay [4], 80 to 89%. Further, the “inhibition of kinase activity, LOK” value in assay [3] was “A (A=95% or greater at 5 um)”.
Taken in the same sequence, the figures for `CSc1nc(C(=O)Nc2ccc(Oc3ccnc(C(=O)NC4COC4)c3)c(F)c2)c(-c2ccc(F)cc2)o1` [Compound 31] were less than 50%, no less than 95%, less than 50% and “D (category D for 50-79)”.
For the compound `CNC(=O)c1cc(Oc2ccc(NC(=O)c3nc(OC4CC4)oc3-c3ccc(F)cc3)cc2F)ccn1` [Compound 32], the figures for the inhibition at 5 µM in assay [1], in assay [2] and in assay [4] were 50 to 79%, no less than 95% and 50 to 79%, respectively. Besides, the “inhibition of kinase activity, LOK” value in assay [3] is “B (B=90%-94% at 5 um)”.
Consider `[2H]C([2H])([2H])NC(=O)c1cc(Oc2ccc(NC(=O)c3nc(SC)oc3-c3ccc(F)c(F)c3)cc2F)ccn1` [Compound 33], for which the figures for the inhibition at 5 µM in assay [1], in assay [2] and in assay [4] were less than 50%, no less than 95% and 50 to 79%, respectively. Moreover, the “inhibition of kinase activity, LOK” value in assay [3] is listed as “C (C=80%-89% at 5 um)”.
Taken in the same sequence, the figures for `CNC(=O)c1cc(Oc2ccc(NC(=O)c3nc(SC(C)C)oc3-c3ccc(F)cc3)cc2F)ccn1` [Compound 34] were 90 to 94%, no less than 95%, 80 to 89% and “A (A=95% or greater at 5 um)”.
Taken in the same sequence, the figures for `[2H]C([2H])([2H])NC(=O)c1cc(Oc2ccc(NC(=O)c3nc(SC)oc3-c3ccc(F)s3)cc2F)ccn1` [Compound 35] were less than 50%, no less than 95%, less than 50% and “D (category D for 50-79)”.
For `CNC(=O)c1ccc(Oc2ccc(NC(=O)c3nc(Cl)oc3-c3ccc(F)cc3)c(F)c2)cn1` [Compound 36] the same measures were less than 50%, 80 to 89%, less than 50% and “E (category E is less than 50%)”.
Consider `CSc1nc(C(=O)Nc2ccc(Oc3ccnc(C(=O)NC4COC4)c3)c(F)c2)c(-c2ccc(F)c(F)c2)o1` [Compound 37], for which the results for the inhibition at 5 µM in assay [1], in assay [2] and in assay [4] were less than 50%, no less than 95% and less than 50%, respectively. The “inhibition of kinase activity, LOK” value in assay [3] is recorded as “E (category E is less than 50%)”.
As to `CNC(=O)c1cc(Oc2ccc(NC(=O)c3nc(OCC(F)(F)F)oc3-c3ccc(F)cc3)cc2F)ccn1` [Compound 38], the figures for the inhibition at 5 µM in assay [1], in assay [2] and in assay [4] were less than 50%, no less than 95% and less than 50%, respectively. Also, in assay [3], the “inhibition of kinase activity, LOK” value was “C (C=80%-89% at 5 um)”.
As to `COc1nc(C(=O)Nc2ccc(Oc3ccnc(C(=O)NC4COC4)c3)c(F)c2)c(-c2ccc(F)cc2)o1` [Compound 39], the inhibition at 5 µM is less than 50% in assay [1], no less than 95% in assay [2] and less than 50% in assay [4]. Besides, in assay [3], the “inhibition of kinase activity, LOK” value is reported as “E (category E is less than 50%)”.
Consider `CSc1nc(C(=O)Nc2ccc(Oc3ccnc(C(=O)NCC(F)(F)F)c3)c(F)c2)c(-c2ccc(F)cc2)o1` [Compound 40], for which the inhibition at 5 µM was less than 50% in assay [1], no less than 95% in assay [2] and less than 50% in assay [4]. The “inhibition of kinase activity, LOK” value in assay [3] was “E (category E is less than 50%)”.
Take `CSc1nc(C(=O)Nc2ccc(Oc3ccnc(C(=O)NCCN(C)C)c3)c(F)c2)c(-c2ccc(F)cc2)o1` [Compound 41]: the inhibition at 5 µM is 50 to 79% in assay [1], no less than 95% in assay [2] and 50 to 79% in assay [4]. Further, in assay [3], the “inhibition of kinase activity, LOK” value was “E (category E is less than 50%)”.
With `CSc1nc(C(=O)Nc2ccc(Oc3ccnc(C(=O)NC4CCN(C)CC4)c3)c(F)c2)c(-c2ccc(F)cc2)o1` [Compound 42], the inhibition at 5 µM was less than 50% in assay [1], no less than 95% in assay [2] and less than 50% in assay [4]. Besides, the “inhibition of kinase activity, LOK” value in assay [3] is listed as “E (category E is less than 50%)”.
For the compound `COc1nc(C(=O)Nc2ccc(Oc3ccnc(C(=O)NCC(F)(F)F)c3)c(F)c2)c(-c2ccc(F)cc2)o1` [Compound 43], the inhibition at 5 µM in assay [1] was less than 50%; in assay [2], no less than 95%; in assay [4] it was less than 50%. Besides, the “inhibition of kinase activity, LOK” value in assay [3] is “E (category E is less than 50%)”.

The record behind these values is patent US11629143B2, “HipK4 inhibitors and uses thereof” (Vibliome Therapeutics, LLC, priority 2020, dated 2023).
